Ends that are not written are not given here.
Legend:
[1] = test system: hepatitis B virus (HBV) ayw strain; assay: HBV assay, secreted HBV DNA by TaqMan PCR in HepG2-2.2.15 cells; assay type: cell-based; details: 10 micrograms per ml, six days
Procedure: HepG2-2.2.15 is a stable cell line containing the hepatitis B virus (HBV) ayw strain genome (ATCC Cat. No. CRL-11997). […] After 16-24 hours the confluent monolayer of HepG2-2.2.15 cells was washed and the medium was replaced with complete medium containing test peptides-10 micrograms per ml—in duplicate. […] Three days later the culture medium was replaced with fresh medium containing the peptides. Six days following the initial administration of the peptides, the cell culture supernatants was collected, treated with pronase and DNAse and then used in a real-time quantitative TaqMan PCR assay. The PCR-amplified HBV DNA was detected in real-time by monitoring increases in fluorescence signals that result from the exonucleolytic degradation of a quenched fluorescence probe molecule that hybridizes to the mplified HBV DNA. For each PCR amplification, a standard curve was simultaneously generated using dilutions of purified HBV DNA. Antiviral activity was calculated from the reduction in HBV DNA levels (% virus control). A novel dye uptake assay was then employed to measure cell viability, which is used to calculate toxicity (% cell control).

[2] = test system: spleen cells of Ovalbumin-immunized Balb/c mice; assay: Th1/Th2 cytokine profiling assay (Mouse Th1/Th2 Cytokine CBA Kit); assay type: cell-based; details: 10 micrograms per ml; Ovalbumin restimulation, 72 hours
Source text: The Balb/c mice (originated in 1923, it is a popular strain and is used in many different research disciplines. Also classified as an inbred from the production of 20 or more successive brother-sister matings, the Balb/c mouse is albino and small in size) were immunized on Days 1, 15, and 29 with Ovalbumin (Ovalbumin is the main protein found in egg white, commonly used to stimulate an immunological reaction in test animals) in PBS (5 micrograms/injection). On day 50, spleens of the mice were harvested (3 weeks after last boost with Ovalbumin). Cells were cultured (2×10^5/well in triplicate) and incubated with culture medium or test peptides—10 micrograms per ml—for 30 min. Thereafter, additional Ovalbumin was added to the cells at 10 micrograms/ml for in vitro restimulation of the cells. 72 hours later, cell supernatants were harvested and assayed using the Becton Dickinson Mouse Th1/Th2 Cytokine CBA Kit.

[3] = test system: Primary Human endothelial cells (HUVEC); assay: Endothelial cell migration assay; assay type: cell-based; details: 10 micrograms per ml, 22 hours
Procedure: Thereafter, designated concentration of testing peptides—10 micrograms per ml—was added in duplicate wells.

[4] = test system: HUVEC; assay: Endothelial tube formation assay; assay type: cell-based, human; details: 10 micrograms per ml, 20 hours
Source text: Positive control was vehicle only. […] Raw data were expressed as average tubule lenghs in pixels±standard deviation.

[5] = test system: HCMV strain AD169; assay: HCMV plaque formation assay in MRC-5 cells; details: for inhibition of HCMV plaque formation as compared to the virus control experiment: 10 micrograms per ml, 7-10 days
Source text: Cells were split twic a week 1:2.
Ganciclovir was used as positive control.

[6] = test system: RAW 264.7 cells; assay: Phagocytosis assay (Fluorescein-labeled Escherichia coli, flow cytometry); details: 10 micrograms per ml, Fluorescein-labeled E. coli, 60 min
[7] = test system: HIV-1IIIB

Molecule | IFNγ spleen cells; TH1 response (% of control) [2] | IL-2 spleen cells (% of control) [2] | IL-4 spleen cells; TH2 response (% of control) [2] | IL-5 spleen cells; TH2 response (% of control) [2] | TNF-a spleen cells; TH1 response (% of control) [2] | inhibition of the tube formation of human endothelial cells [4] | inhibition of HCMV plaque formation as compared to the virus control experiment [5] | induction of phagocytosis as compared to the control experiment [6] | antiviral activity of positive control compounds (HIV-1) [7] | further results
Thr-Gln-Ala-Gln-Leu-Leu-Arg-Val-Gly-Cys-Val-Leu-Gly-Thr-Cys-Gln-Val-Gln-Asn-Leu-Ser-His-Arg-Leu-Trp-Gln-Leu-Met-Gly-Pro-Ala-Gly-Arg-Gln-Asp-Ser-Ala-Pro-Val-Asp-Pro-Ser-Ser-Pro-His-Ser-Tyr-NH2 [peptide 2] | 19.1 % of control | 98.9 % of control | 0.0 % of control | 17.9 % of control | 66.7 % of control | 12% | 0.7% | 34.3% |  | inhibition of HBV replication as compared to the virus control infection [1]: no effect; induction of the migration of human endothelial cells [3]: 19%
CC(C)(C)NC(=O)[C@@H]1CN(Cc2cccnc2)CCN1C[C@@H](O)C[C@@H](Cc1ccccc1)C(=O)N[C@H]1c2ccccc2C[C@H]1O [indinavir] |  |  |  |  |  |  |  |  | expected levels of antiviral activity | 
His-Ser-Gly-Pro-Arg-Arg-Thr-Gln-Ala-Gln-Leu-Leu-Arg-Val-Gly-Cys-Val-Leu-Gly-Thr-Cys-Gln-Val-Gln-Asn-Leu-Ser-His-Arg-Leu-Trp-Gln-Leu-Met-Gly-Pro-Ala-Gly-Arg-Gln-Asp-Ser-Ala-Pro-Val-Asp-Pro-Ser-Ser-Pro-His-Ser-Tyr-NH2 (HSGPRRTQAQLLRVGCVLGTCQVQNLSHRLWQLMGPAGRQDSAPVDPSSPHSY-NH2; cysteine pairing not given here) [peptide 1] | 21.7 % of control | 75.6 % of control | 166.9 % of control | 34.5 % of control | 70.0 % of control | 19% | 1.8% | did not induce phagocytosis |  | inhibition of the migration of endothelial cells [3]: 8%
Nc1nc(O)c2ncn(COC(CO)CO)c2n1 [Ganciclovir, reference compound] |  |  |  |  |  |  |  |  |  | antiviral activity of positive control compound (HCMV) ([5]; positive control, HCMV AD169): expected levels of antiviral activity
Cc1cn([C@H]2C[C@H](N=[N+]=[N-])[C@@H](CO)O2)c(=O)[nH]c1=O [AZT] |  |  |  |  |  |  |  |  | expected levels of antiviral activity | 
